The source made the active and inactive calls.
Experiments:
Vero [1] = assay: cells; type: functional; settings: Chlorocebus sabaeus
[2] = Luminescent dose response cell-based high throughput screening assay for inhibitors of the Janus kinase 2 mutant JAK2V617F. [Related pubchem assays: 1446 (Primary screen.), 1521 (Confirmation assay.), 1486 (Counter screen.)]; type: functional
Vero [3] = assay: cells; type: functional, cell-based; settings: Chlorocebus sabaeus
CAAX prenyl protease 1 = CAAX prenyl protease 1 (Saccharomyces cerevisiae S288c, UniProt P47154); assay: Ste24 protease inhibitors, dose response, biochemical, S. cerevisiae, plate reader, cherry-pick (AID 488815)
Chain of CAAX prenyl protease 1 (P47154 whole entry): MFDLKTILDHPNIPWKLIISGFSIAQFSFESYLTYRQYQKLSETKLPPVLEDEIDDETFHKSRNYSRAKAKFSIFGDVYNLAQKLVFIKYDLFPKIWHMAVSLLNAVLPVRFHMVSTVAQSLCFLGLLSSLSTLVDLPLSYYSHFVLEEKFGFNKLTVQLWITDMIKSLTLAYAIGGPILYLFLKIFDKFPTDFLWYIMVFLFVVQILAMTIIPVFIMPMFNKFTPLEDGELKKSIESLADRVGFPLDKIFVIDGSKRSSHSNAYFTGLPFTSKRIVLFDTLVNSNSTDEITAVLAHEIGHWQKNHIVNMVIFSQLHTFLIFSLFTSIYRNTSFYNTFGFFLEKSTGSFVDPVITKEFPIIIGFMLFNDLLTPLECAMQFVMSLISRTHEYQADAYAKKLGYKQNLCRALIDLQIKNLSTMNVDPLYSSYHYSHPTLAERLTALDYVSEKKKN

CAAX prenyl protease 2 = target: T1, CAAX prenyl protease 2 (Saccharomyces cerevisiae S288c, UniProt Q03530); type: biochemical
T1 sequence (Q03530 whole entry): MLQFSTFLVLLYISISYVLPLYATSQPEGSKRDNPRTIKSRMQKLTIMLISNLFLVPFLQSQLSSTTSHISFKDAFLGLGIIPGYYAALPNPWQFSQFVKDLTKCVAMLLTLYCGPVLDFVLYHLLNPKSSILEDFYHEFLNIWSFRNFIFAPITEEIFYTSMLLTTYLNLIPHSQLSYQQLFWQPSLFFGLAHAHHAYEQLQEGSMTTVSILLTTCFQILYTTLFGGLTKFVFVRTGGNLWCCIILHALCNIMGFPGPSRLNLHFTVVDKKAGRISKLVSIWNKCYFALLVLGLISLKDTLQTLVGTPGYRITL

Galanin receptor type 3 = target: T2, Galanin receptor type 3 (Homo sapiens, UniProt O60755); assay: Fluorescence-based cell-based primary high throughput dose response assay to identify antagonists of the Galanin Receptor 3 (GalR3).; type: functional
T2 sequence (O60755 whole entry): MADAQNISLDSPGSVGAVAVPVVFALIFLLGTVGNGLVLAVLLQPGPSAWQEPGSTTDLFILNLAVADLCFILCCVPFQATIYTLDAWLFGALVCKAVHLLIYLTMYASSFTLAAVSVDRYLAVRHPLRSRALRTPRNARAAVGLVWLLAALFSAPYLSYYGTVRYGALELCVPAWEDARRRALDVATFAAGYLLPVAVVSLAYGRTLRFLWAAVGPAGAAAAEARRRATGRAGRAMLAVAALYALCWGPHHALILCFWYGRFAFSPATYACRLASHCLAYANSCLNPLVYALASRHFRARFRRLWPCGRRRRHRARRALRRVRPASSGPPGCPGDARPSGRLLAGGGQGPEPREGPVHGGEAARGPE

cells = type: functional, cell-based; settings: HEK-CNG
Protein Wnt-3a = Protein Wnt-3a (Mus musculus, UniProt P27467); assay: Wnt3a-driven reporter signaling inhibition, dose response, selectivity assay for Gli-SUFU antagonist project, Wnt-LIGHT cells, luminescence (AID 651570); type: functional; settings: read-out: IC50_Mean;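 also: Wnt-LIGHT reporter cells stimulated with conditioned medium from Wnt3a-producing cells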
Chain of Protein Wnt-3a (P27467 whole entry): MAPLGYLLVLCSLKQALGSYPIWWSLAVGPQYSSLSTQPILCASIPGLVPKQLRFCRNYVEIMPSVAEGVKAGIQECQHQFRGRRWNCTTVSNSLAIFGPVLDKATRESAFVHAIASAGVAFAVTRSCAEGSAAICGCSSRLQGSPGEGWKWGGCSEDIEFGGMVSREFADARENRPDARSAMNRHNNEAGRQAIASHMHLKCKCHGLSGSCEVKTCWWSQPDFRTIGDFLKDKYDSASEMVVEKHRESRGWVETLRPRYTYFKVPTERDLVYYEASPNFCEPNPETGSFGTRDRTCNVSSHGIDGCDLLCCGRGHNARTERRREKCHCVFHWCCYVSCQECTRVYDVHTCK

[4] = Luminescence Cell-Based Dose Retest to Confirm Inhibitors of Cancer Stem Cells. [Related pubchem assays (depositor defined):AID2717, AID2721]; type: functional; settings: Homo sapiens
[5] = cytotoxicity in HMLE control line with eGFP shRNA, dose response, counter-screen for HMLE_sh_ECad selective toxicity project, cell-based, HMLE_sh_eGFP, luminescence (AID 463074); type: functional, Homo sapiens;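 also: HMLE human mammary epithelial cells expressing control shRNA against eGFP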
Galanin receptor type 2 = Galanin receptor type 2 (Homo sapiens, UniProt O43603); assay: Dose Response cell-based high-throughput screening assay to identify antagonists of galanin receptor 2 (GALR2). [Related pubchem assays: 828, 866 ]; type: functional
Chain of Galanin receptor type 2 (O43603 whole entry): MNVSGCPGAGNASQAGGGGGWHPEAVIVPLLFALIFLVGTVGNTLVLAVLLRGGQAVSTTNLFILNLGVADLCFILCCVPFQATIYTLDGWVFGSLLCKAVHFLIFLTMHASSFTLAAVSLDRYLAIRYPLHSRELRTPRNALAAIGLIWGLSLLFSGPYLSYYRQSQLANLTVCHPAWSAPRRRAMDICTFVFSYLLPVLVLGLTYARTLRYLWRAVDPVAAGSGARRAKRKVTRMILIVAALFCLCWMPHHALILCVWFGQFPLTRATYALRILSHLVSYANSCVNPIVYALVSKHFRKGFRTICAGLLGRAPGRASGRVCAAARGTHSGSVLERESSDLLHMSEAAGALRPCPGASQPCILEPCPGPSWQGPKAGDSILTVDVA

INS1 = assay: beta cell apoptosis inhibitors, cytokine rescue, dose response, luminescence, retest (AID 449756); type: functional, cell-based; settings: Rattus norvegicus, INS1;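 also: cell death triggered by IL-1 beta plus TNF-alpha plus IFN-gamma mixture; protective hits raise ATP signal compared with cytokine alone wells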
[6] = target: G-protein coupled receptor 55 (Homo sapiens, UniProt Q9Y2T6); assay: GPR55 antagonists, SAR follow-up, counter-screen for GPR35 antagonist project, imaging, image-based (AID 2397); type: functional
Chain of G-protein coupled receptor 55 (Q9Y2T6 whole entry): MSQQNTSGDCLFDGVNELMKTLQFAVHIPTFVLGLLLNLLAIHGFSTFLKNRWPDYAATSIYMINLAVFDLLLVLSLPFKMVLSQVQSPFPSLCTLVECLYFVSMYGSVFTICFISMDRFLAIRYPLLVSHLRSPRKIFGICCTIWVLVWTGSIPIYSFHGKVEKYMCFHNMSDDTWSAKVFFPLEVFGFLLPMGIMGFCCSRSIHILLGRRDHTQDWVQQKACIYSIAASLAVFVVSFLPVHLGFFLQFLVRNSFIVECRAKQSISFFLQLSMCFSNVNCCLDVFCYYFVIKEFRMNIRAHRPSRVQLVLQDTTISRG

[7] = target: T3, Tyrosine-protein phosphatase non-receptor type 22 (Homo sapiens, UniProt Q9Y2R2); assay: SAR LYP1 Fluorescent Assay using OMFP substrate for In Vitro dose response studies - Set 3. [Related pubchem assays (depositor defined):AID1779, AID1784, AID2140, AID2686]; type: functional
T3 sequence (Q9Y2R2 whole entry): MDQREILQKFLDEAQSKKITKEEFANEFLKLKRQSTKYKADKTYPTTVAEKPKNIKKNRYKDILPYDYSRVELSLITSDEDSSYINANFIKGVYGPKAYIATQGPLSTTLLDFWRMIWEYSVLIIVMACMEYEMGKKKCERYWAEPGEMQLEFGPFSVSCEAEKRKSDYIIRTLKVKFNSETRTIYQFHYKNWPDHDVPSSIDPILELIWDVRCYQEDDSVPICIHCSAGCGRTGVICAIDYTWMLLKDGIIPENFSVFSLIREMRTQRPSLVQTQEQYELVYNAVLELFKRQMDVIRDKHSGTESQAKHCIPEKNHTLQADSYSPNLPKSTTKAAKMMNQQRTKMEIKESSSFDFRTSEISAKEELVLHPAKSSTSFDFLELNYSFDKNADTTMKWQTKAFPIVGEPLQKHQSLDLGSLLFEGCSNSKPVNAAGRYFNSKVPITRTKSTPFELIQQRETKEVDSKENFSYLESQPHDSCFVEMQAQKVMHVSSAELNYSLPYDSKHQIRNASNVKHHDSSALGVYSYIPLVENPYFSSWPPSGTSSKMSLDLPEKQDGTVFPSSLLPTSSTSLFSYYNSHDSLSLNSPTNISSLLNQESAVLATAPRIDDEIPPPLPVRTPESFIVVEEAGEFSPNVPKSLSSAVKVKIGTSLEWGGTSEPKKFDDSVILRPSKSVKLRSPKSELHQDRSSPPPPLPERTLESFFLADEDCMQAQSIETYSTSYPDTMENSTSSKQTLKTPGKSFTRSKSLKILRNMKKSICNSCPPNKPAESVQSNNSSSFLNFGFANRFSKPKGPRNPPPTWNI

[8] = target: T3, Tyrosine-protein phosphatase non-receptor type 22; assay: LYP (PTPN22) phosphatase inhibitor potency, SAR follow-up, biochemical, pCAP fluorogenic substrate, fluorescence, set 3 (AID 449727); type: functional
[9] = target: T4, Tyrosine-protein phosphatase non-receptor type 7 (Homo sapiens, UniProt P35236); assay: HePTP (PTPN7) phosphatase inhibitor potency, SAR follow-up, biochemical, set 2 (AID 449736); type: functional
T4 sequence (P35236 whole entry): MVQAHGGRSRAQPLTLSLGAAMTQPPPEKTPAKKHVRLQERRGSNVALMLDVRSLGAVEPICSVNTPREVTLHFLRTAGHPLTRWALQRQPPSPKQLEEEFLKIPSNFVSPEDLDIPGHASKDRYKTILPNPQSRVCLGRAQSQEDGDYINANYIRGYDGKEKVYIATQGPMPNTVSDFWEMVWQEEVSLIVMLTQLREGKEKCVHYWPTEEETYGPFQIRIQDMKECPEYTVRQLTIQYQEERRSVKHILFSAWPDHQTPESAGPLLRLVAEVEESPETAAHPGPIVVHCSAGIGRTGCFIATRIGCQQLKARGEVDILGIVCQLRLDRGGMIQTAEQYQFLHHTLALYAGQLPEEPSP

[10] = target: T5, Tyrosine-protein phosphatase non-receptor type 12 (Homo sapiens, UniProt Q05209); assay: SAR Selectivity Analysis of small molecule inhibitors of PEST using pCAP in a fluorescence assay. [Related pubchem assays (depositor defined):AID1779, AID1784, AID2135]; type: functional
T5 sequence (Q05209 whole entry): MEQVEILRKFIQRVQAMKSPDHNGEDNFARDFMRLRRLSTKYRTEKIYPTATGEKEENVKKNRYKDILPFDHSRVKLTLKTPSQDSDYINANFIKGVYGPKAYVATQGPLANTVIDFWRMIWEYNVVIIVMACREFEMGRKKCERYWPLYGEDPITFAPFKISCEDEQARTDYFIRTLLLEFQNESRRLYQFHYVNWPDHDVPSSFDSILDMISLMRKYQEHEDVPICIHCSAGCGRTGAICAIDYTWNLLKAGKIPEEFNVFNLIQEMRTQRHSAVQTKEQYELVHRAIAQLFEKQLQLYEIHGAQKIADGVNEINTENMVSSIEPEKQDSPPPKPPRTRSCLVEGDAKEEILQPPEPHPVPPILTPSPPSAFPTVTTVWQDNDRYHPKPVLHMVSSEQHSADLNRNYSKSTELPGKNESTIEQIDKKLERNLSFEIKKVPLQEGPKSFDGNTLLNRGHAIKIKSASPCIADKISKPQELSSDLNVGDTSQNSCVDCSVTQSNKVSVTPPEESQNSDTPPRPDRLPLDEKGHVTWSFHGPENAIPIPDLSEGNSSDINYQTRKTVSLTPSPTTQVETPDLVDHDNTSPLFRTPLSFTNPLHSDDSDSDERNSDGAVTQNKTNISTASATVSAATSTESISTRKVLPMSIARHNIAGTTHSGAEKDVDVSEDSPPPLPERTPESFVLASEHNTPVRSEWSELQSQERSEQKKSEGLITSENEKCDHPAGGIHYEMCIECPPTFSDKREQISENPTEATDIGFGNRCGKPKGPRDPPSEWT

[11] = target: G-protein coupled receptor 35 (Homo sapiens, UniProt Q9HC97); assay: SAR Analysis for the identification of Selective Antagonists of ERK1/2 Activity in GPR35-Overexpressing U2OS Cells. [Related pubchem assays: 2079, 2058 ]; type: functional, cell-based
Chain of G-protein coupled receptor 35 (Q9HC97 whole entry): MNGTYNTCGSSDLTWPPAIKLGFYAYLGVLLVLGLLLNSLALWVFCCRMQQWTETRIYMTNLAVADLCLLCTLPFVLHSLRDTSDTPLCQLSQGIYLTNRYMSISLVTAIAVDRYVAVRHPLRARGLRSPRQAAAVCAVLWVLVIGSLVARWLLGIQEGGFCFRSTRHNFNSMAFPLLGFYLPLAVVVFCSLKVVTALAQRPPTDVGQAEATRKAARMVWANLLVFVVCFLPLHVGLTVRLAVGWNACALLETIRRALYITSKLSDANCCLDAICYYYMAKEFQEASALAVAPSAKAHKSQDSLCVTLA

HEK293 [12] = assay: cells; type: functional, cell-based; settings: Homo sapiens
Tumor necrosis factor = Tumor necrosis factor (Homo sapiens, UniProt P01375); assay: TNFa-triggered NF-kB activation inhibitors, SAR follow-up, cell-based, revised (AID 2337); type: functional
Chain of Tumor necrosis factor (P01375 whole entry): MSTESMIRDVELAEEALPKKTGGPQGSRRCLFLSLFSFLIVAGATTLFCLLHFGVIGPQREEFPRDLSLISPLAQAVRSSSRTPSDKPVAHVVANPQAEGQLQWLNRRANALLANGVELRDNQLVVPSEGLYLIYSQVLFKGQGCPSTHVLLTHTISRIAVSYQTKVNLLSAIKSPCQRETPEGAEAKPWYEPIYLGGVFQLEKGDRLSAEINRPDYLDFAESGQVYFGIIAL

HEK293 [13] = assay: NOD2 signaling inhibitors in MDP-stimulated cells, cell-based, uHTS, luminescence (AID 2001); type: functional; settings: Homo sapiens
[14] = target: T6, COUP transcription factor 2 (Homo sapiens, UniProt P24468); assay: Luminescence-based cell-based high throughput dose response assay to identify inhibitors of COUP-TFII (NR2F2).; type: functional;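 also: HEK293 cells transiently cotransfected with COUP-TFII expression vector and reporter; luciferase reporter luminescence driven by COUP-TFII from the pX2-168 reporter plasmid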
T6 sequence (P24468 whole entry): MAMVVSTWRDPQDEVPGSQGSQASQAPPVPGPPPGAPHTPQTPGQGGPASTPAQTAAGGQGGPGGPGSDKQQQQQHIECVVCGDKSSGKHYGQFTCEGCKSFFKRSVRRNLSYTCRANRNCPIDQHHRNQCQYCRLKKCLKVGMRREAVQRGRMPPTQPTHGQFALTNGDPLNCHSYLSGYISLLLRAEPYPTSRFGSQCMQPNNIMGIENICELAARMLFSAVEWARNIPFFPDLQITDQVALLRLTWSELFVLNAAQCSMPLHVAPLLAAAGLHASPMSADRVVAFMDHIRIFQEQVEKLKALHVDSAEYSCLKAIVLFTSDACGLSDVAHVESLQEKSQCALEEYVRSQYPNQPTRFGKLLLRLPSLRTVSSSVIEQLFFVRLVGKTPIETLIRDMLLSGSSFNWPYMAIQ

[15] = target: Nucleotide-binding oligomerization domain-containing protein 1 (Homo sapiens, UniProt Q9Y239); assay: NOD1 signaling inhibitors, SAR follow-up, revised (AID 2333); type: functional
Chain of Nucleotide-binding oligomerization domain-containing protein 1 (Q9Y239 whole entry, the tested form may be a part): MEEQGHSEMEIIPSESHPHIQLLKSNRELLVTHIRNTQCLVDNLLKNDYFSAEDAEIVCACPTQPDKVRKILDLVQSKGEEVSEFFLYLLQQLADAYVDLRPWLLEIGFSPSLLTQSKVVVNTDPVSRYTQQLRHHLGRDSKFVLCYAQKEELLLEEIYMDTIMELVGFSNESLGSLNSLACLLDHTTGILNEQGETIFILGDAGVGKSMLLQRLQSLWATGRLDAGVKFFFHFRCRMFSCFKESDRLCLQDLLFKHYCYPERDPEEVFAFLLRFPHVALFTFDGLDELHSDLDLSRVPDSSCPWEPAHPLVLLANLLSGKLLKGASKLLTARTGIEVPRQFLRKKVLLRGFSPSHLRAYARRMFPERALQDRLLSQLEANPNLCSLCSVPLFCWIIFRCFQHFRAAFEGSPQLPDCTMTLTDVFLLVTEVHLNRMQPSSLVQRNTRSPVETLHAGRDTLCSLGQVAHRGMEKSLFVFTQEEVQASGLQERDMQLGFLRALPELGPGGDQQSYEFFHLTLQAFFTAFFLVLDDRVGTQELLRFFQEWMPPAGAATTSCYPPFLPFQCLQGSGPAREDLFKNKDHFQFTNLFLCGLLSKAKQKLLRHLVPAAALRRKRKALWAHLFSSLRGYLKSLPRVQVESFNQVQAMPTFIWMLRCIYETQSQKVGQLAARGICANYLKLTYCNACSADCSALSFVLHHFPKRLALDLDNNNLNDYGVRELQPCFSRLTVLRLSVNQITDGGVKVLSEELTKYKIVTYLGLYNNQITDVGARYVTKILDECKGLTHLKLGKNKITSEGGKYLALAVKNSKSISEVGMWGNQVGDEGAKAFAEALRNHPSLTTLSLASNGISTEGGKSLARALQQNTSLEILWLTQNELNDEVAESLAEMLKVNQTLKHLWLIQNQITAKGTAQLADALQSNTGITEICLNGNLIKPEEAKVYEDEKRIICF

HEK293 [16] = assay: cells; type: functional, cell-based; settings: Homo sapiens; remark: listed apart in the source
HEK293 [17] = assay: NOD1 signaling inhibitors, primary screen, cell-based, luminescence, uHTS (AID 1578); type: functional; settings: Homo sapiens
HEK293 [18] = assay: cells; settings: Homo sapiens
SUMO E1/E2 = SUMO E1/E2 (Homo sapiens, UniProt P63279+Q9UBE0+Q9UBT2); assay: SAR analysis of SUMOylation using HTRF in an in-Vitro dose response assay. [Related pubchem assays (depositor defined):AID2006, AID2011, AID2018, AID2069, AID2658]; type: functional
Chain of SUMO E1/E2 (Q9UBE0 whole entry): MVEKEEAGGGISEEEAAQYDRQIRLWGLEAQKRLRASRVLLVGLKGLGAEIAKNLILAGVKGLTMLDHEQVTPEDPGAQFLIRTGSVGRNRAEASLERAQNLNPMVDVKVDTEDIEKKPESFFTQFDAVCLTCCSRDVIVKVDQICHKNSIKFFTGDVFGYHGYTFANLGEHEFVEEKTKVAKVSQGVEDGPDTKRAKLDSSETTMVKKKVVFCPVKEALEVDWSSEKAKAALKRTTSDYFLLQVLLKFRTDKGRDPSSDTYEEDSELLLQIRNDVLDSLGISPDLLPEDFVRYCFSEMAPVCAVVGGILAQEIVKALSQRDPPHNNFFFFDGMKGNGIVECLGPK
Chain of SUMO E1/E2 (Q9UBT2 whole entry): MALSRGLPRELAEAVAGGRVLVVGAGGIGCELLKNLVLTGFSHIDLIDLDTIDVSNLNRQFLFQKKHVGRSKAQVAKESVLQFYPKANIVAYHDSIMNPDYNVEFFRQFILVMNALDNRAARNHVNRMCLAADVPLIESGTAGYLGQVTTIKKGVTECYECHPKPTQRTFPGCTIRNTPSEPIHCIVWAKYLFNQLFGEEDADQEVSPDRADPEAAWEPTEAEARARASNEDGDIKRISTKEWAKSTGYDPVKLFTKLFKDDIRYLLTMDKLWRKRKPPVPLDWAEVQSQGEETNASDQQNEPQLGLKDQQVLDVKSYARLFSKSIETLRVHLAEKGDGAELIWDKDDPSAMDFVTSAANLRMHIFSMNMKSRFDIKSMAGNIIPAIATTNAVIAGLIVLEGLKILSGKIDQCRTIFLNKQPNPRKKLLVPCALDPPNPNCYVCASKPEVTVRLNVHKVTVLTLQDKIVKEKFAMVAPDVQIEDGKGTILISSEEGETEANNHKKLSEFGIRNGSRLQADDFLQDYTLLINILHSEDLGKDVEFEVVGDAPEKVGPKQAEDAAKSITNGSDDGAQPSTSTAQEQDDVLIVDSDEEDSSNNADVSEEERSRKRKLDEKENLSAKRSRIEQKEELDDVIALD
Chain of SUMO E1/E2 (P63279 whole entry): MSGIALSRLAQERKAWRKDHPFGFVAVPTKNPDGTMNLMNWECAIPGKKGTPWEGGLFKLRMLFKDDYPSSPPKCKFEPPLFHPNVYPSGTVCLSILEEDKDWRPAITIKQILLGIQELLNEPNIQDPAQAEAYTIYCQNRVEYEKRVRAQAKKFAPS

COc1cc(/C=C2\COC/C(=C\c3ccc(O)c(OC)c3)C2=O)ccc1O
CC50 (Vero [1]): 5.27 µM (active)
IC50 [2]: 1.15 µM (active)
IC50 (Vero [3]): > 25 µM (active)

Cc1cc(C)c2cc(C#N)c(NCCCNC(=O)CCC(=O)O)nc2c1
AC50 (CAAX prenyl protease 1): 29.9 µM (active)
AC50 (CAAX prenyl protease 2): 36.9 µM (active)

CCCCOc1[nH]cnc2c3cc(F)ccc3nc1-2
IC50 (Galanin receptor type 3): 2.19 µM (active)
EC50 (cells): > 29.9 µM (inactive)
IC50 (Protein Wnt-3a): 1.56 µM (active)
AC50 [4]: > 195 µM (inactive)
AC50 [5]: 52.7 µM (active)
IC50 (Galanin receptor type 2): 472 µM (not active)
AC50 (INS1): 4.34 µM (active)

COc1ccc(/C=C2\SC(=S)N(CCCC(=O)Nc3ccc(C(=O)O)c(O)c3)C2=O)cc1OC
IC50 [6]: > 32 µM (inactive)
IC50 [7]: > 100 µM (inactive)
IC50 [8]: 58.5 µM (active)
IC50 [9]: 9.74 µM (active)
IC50 [10]: 17.9 µM (active)
IC50 [11]: 0.522 µM (active)

CSc1ccccc1OCc1cc(C(=O)N2CCC(c3ccncc3)CC2)no1
IC50 (HEK293 [12]): 8.95 µM (active)
IC50 (Tumor necrosis factor): 3.22 µM (active)
IC50 (HEK293 [13]): 5.04 µM (active)
IC50 [14]: 10.3 µM (inactive)
IC50 [15]: 3.18 µM (active)
IC50 (HEK293 [16]): 3.97 µM (active)
EC50 (HEK293 [17]): 2.09 µM (active)
IC50 (HEK293 [18]): > 20 µM (inactive)

Cc1ccc(N=Cc2sccc2C)cc1C
IC50 (SUMO E1/E2): > 100 µM (inactive)
